Measured values taken from patent US6822102B2, “Dihydrobenzopyrans, dihydrobenzothiopyrans, and tetrahydroquinolines for the treatment of COX-2 mediated disorders” (Pharmacia Corporation, priority 2000, dated 2004).

Tests used:
COX-1 [1] = molecular target: COX-1 (UniProt P23219); test: Fast assay for COX-1 activity (PGE2 ELISA, recombinant enzyme); type: biochemical, human or murine; settings: column marked *; footnote not given
Description: (§1) a. Preparation of recombinant COX baculoviruses
(§2) Recombinant COX-1 and COX-2 were prepared as described by Gierse et al, [J. Biochem., 305, 479-84 (1995)]. A 2.0 kb fragment containing the coding region of either human or murine COX-1 or human or murine COX-2 was cloned into a BamHI site of the baculovirus transfer vector pVL1393 (Invitrogen) to generate the baculovirus transfer vectors for COX-1 and COX-2 in a manner similar to the method of D. R. O'Reilly et al (Baculovirus Expression Vectors: A Laboratory Manual (1992)). Recombinant baculoviruses were isolated by transfecting 4 μg of baculovirus transfer vector DNA into SF9 insect cells (2×10^8) along with 200 ng of linearized baculovirus plasmid DNA by the calcium phosphate method. See M. D. Summers and G. E. Smith, A Manual of Methods for Baculovirus Vectors and Insect Cell Culture Procedures, Texas Agric. Exp. Station Bull. 1555 (1987). Recombinant viruses were purified by three rounds of plaque purification and high titer (10^7-10^8 pfu/mL) stocks of virus were prepared. For large scale production, SF9 insect cells were infected in 10 liter fermentors (0.5×10^6/mL) with the recombinant baculovirus stock such that the multiplicity of infection was 0.1. After 72 hours the cells were centrifuged and the cell pellet homogenized in Tris/Sucrose (50 mM: 25%, pH 8.0) containing 1% 3-[(3-cholamidopropyl) dimethylammino]-1-propanesulfonate (CHAPS). The homogenate was centrifuged at 10,000×G for 30 minutes, and the resultant supernatant was stored at −80° C. before being assayed for COX activity.
(§3) c. Fast assay for COX-1 and COX-2 activity
(§4) COX activity was assayed as PGE2 formed/μg protein/time using an ELISA to detect the prostaglandin released. CHAPS-solubilized insect cell membranes containing the appropriate COX enzyme were incubated in a potassium phosphate buffer (0.05 M Potassium phosphate, pH 7.5, 2 μM phenol, 1 μM heme, 300 μM epinephrine) with the addition of 20 μl of 100 μM arachidonic acid (10 μM). Compounds were pre-incubated with the enzyme for 10 minutes at 25° C. prior to the addition of arachidonic acid. Any reaction between the arachidonic acid and the enzyme was stopped after two minutes at 37° C./room temperature by transferring 40 μl of reaction mix into 160 μl ELISA buffer and 25 μM indomethacin. The PGE2 formed was measured by standard ELISA technology (Cayman Chemical).

COX-2 [2] = molecular target: T1, COX-2 (UniProt P35354); test: Assay for COX-2 activity (PGE2 ELISA, recombinant enzyme); type: biochemical, human or murine; settings: without asterisk
T1 sequence (P35354 1-604): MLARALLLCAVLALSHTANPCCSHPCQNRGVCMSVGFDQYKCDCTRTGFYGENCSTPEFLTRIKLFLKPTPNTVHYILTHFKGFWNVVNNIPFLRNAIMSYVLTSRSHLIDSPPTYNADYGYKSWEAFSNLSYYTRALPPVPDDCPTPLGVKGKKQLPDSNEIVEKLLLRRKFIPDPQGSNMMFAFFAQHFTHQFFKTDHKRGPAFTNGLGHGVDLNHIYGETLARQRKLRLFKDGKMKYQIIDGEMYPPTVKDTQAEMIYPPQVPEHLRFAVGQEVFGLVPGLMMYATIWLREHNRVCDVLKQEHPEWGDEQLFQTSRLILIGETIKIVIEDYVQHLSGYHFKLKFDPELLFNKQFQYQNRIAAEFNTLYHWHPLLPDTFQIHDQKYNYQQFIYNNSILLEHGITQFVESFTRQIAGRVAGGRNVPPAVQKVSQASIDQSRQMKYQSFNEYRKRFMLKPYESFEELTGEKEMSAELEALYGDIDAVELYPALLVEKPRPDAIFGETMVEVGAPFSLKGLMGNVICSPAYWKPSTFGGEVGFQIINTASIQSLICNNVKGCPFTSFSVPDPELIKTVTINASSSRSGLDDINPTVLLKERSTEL
Description: (§5) The COX-2 inhibition activity of the compounds of this invention illustrated in the Examples was determined by the following methods.
as §1, §2
(§6) b. Assay for COX-1 and COX-2 activity
(§7) COX activity was assayed as PGE2 formed/μg protein/time using an ELISA to detect the prostaglandin released. CHAPS-solubilized insect cell membranes containing the appropriate COX enzyme were incubated in a potassium phosphate buffer (50 mM, pH 8.0) containing epinephrine, phenol, and heme with the addition of arachidonic acid (10 μM). Compounds were pre-incubated with the enzyme for 10-20 minutes prior to the addition of arachidonic acid. Any reaction between the arachidonic acid and the enzyme was stopped after ten minutes at 37° C./room temperature by transferring 40 μl of reaction mix into 160 μl ELISA buffer and 25 μM indomethacin. The PGE2 formed was measured by standard ELISA technology (Cayman Chemical).

COX-1 [3] = molecular target: COX-1 (UniProt P23219); test: Assay for COX-1 activity (PGE2 ELISA, recombinant enzyme); type: biochemical, human or murine; settings: without asterisk
Description: as §1, §2, §6, §7

COX-2 [4] = molecular target: T1, COX-2; test: Fast assay for COX-2 activity (PGE2 ELISA, recombinant enzyme); type: biochemical, human or murine; settings: column marked *; footnote not given
Description: as §5, §1, §2, §3, §4

carrageenan foot edema = test: Rat carrageenan foot pad edema test; type: in vivo; settings: oral, male Sprague-Dawley rats, 3 h after carrageenan
Description: Rat Carrageenan Foot Pad Edema Test The carrageenan foot edema test was performed with materials, reagents and procedures essentially as described by Winter, et al., (Proc. Soc. Exp. Biol. Med., 111, 544 (1962)). Male Sprague-Dawley rats were selected in each group so that the average body weight was as close as possible. Rats were fasted with free access to water for over sixteen hours prior to the test. The rats were dosed orally (1 mL) with compounds suspended in vehicle containing 0.5% methylcellulose and 0.025% surfactant, or with vehicle alone. One hour later a subplantar injection of 0.1 mL of 1% solution of carrageenan/sterile 0.9% saline was administered and the volume of the injected foot was measured with a displacement plethysmometer connected to a pressure transducer with a digital indicator. Three hours after the injection of the carrageenan, the volume of the foot was again measured. The average foot swelling in a group of drug-treated animals was compared with that of a group of placebo-treated animals and the percentage inhibition of edema was determined (Otterness and Bliven, Laboratory Models for Testing NSAIDs, in Non-steroidal Anti-Inflammatory Drugs, (J. Lombardino, ed. 1985)).

Analgesia (Table I) = type: in vivo

Structure (SMILES)	IC50 (COX-1 [1]) [µM]	IC50 (COX-2 [2]) [nM]	IC50 (COX-1 [3]) [µM]	IC50 (COX-2 [4]) [nM]	melting point [°C]	RAT PAW EDEMA % Inhibition @ 30 mg/kg body weight (carrageenan foot edema) [%]	ANALGESIA % Inhibition @ 30 mg/kg body weight (Analgesia (Table I)) [%]
O=C(O)[C@@H]1Cc2cc(Cl)ccc2O[C@@H]1C(F)(F)F [Example 9, (2S,3R)-6-chloro-3,4-dihydro-2-(trifluoromethyl)-2H-1-benzopyran-3-carboxylic acid]	> 100	29000	> 100	500	118.1 to 119.2		
N#Cc1ccc2c(c1)C[C@@H](C(=O)O)[C@@H](C(F)(F)F)O2 (racemic) [Example 10, rel-(2R,3S)-6-cyano-3,4-dihydro-2-(trifluoromethyl)-2H-1-benzopyran-3-carboxylic acid]	> 100	18000	> 100	4800	169 to 170.4		
O=C(O)[C@@H]1Cc2cc(Cl)cc(Cl)c2S[C@@H]1C(F)(F)F (racemic) [Example 1, rel-(2R, 3S)-6,8-dichloro-3,4-dihydro-2-(trifluoromethyl)-2H-1-benzothiopyran-3-carbolic acid]					165 to 170.2		
O=C(O)[C@@H]1Cc2cc(Cl)ccc2N[C@@H]1C(F)(F)F [Example 6, (2S,3R)-6-Chloro-1,2,3,4-tetrahydro-2-(trifluoromethyl)-3-quinolinecarboxylic acid]	> 100	25000	> 100	2600	154.4 to 154.5		
O=C(O)[C@@H]1Cc2c(cc(Cl)c(Cl)c2Cl)O[C@@H]1C(F)(F)F (racemic) [Example 5, rel-(2R,3S)-3,4-dihydro-5,6,7-trichloro-2-(trifluoromethyl)-2H-1-benzopyran-3-carboxylic acid]	> 100	400	> 100	400	207.3 to 208.5		
O=C(O)[C@@H]1Cc2cc(OC(F)(F)F)ccc2O[C@@H]1C(F)(F)F (racemic) [Example 11, rel-(2R,3S)-3,4-dihydro-6-trifluoromethoxy-2-(trifluoromethyl)-2H-1-benzopyran-3-carboxylic acid]	65	400	> 100	600	120.1 to 120.8		
O=C(O)[C@@H]1Cc2cc(Cl)c(Cl)c(Cl)c2O[C@@H]1C(F)(F)F (racemic) [Example 7, rel-(2R, 3S)-3,4-dihydro-6,7,8-trichloro-2-(trifluoromethyl)-2H-1-benzopyran-3-carboxylic acid]	54	700	> 100	600	205.2 to 208.1		

Continued by falling IC50 (COX-1 [1]), values first:

IC50 (COX-1 [1]) [µM]	IC50 (COX-2 [2]) [nM]	IC50 (COX-1 [3]) [µM]	IC50 (COX-2 [4]) [nM]	melting point [°C]	Structure (SMILES)	RAT PAW EDEMA % Inhibition @ 30 mg/kg body weight (carrageenan foot edema) [%]	ANALGESIA % Inhibition @ 30 mg/kg body weight (Analgesia (Table I)) [%]
8.7	2000	22	2300	185.7 to 188.9	O=C(O)[C@@H]1Cc2c(Cl)ccc(Cl)c2O[C@@H]1C(F)(F)F (racemic) [Example 8, rel-(2R,3S)-5,8-dichloro-3,4-dihydro-2-(trifluoromethyl)-2H-1-benzopyran-3-carboxylic acid]		
5.7	200	> 100	200	173 to 174.4	O=C(O)[C@@H]1Cc2c(ccc(Cl)c2Cl)O[C@@H]1C(F)(F)F (racemic) [Example 3, rel-(2R, 3S)-5,6-dichloro-3,4-dihydro-2-(trifluoromethyl)-2H-1-benzopyran-3-carboxylic acid]		
1.3	> 100000	12	1600	115.8 to 120.9	CC(C)(C)c1cc2c(cc1Cl)C[C@@H](C(=O)O)[C@@H](C(F)(F)F)O2 [Example 4, (2S,3R)-6-chloro-3,4-dihydro-7-(1,1-dimethylethyl)-2-(trifluoromethyl)-2H-1-benzopyran-3-carboxylic acid]		
1	200	2.8	300	100.3 to 101.1	O=C(O)[C@@H]1Cc2cc(Cl)cc(Cl)c2O[C@@H]1C(F)(F)F [Example 2, (2S,3R)-6,8-dichloro-3,4-dihydro-2-(trifluoromethyl)-2H-1-benzopyran-3-carboxylic acid]	52	56
0.6	300	0.6	600		O=C(O)[C@@H]1Cc2cc(Cl)cc(Cl)c2S[C@@H]1C(F)(F)F (relative stereo) [Example 1, rel-(2R, 3S)-6,8-dichloro-3,4-dihydro-2-(trifluoromethyl)-2H-1-benzothiopyran-3-carbolic acid]		
